Format in all cases: ADME, organism-based
Data set [1] can be described thus: Volume of distribution in Sprague-Dawley rat at 2.5 mg/kg, iv and 10 mg/kg, po. The following applies: in vivo, read-out: Vdss.
The nature of data set [2]: AUC in Sprague-Dawley rat at 10 mg/kg, po. As to conditions: plasma. Further details: dose 10 mg/kg, route oral.
The nature of data set [3]: Oral bioavailability in Sprague-Dawley rat at 2.5 mg/kg, iv and 10 mg/kg, po. As to conditions: in vivo.
The nature of data set [4]: Ratio of drug level in Sprague-Dawley rat brain against plasma at 2.5 mg/kg, iv and 10 mg/kg, po after 1 hr. As to conditions: read-out: BPR.
The nature of data set [5]: Ratio of drug level in Sprague-Dawley rat brain against plasma at 2.5 mg/kg, iv and 10 mg/kg, po after 4 hrs. The following applies: read-out: BPR.

In the case of `CN(C)[C@@H]1CCN(c2ccc(-c3coc4cc(-c5ccc(Cl)cc5)ccc4c3=O)cn2)C1.Cl`, the Vd in data set [1] came to 58 L/kg. Besides, the exposure (AUC) (as a rule, concentration integrated over time) in data set [2] came out at 859 ng·h/mL. The bioavailability (commonly the share of a dose that reaches the circulation, judged against a reference dose that is usually intravenous) in data set [3] is 66%. For the same molecule, in data set [4], the Kp at 1 h came out at 9.5. Further, the Kp at 4 h in data set [5] turned out to be 25.

These data come from ChEMBL document CHEMBL1146192, “Substituted chromones and quinolones as potent melanin-concentrating hormone receptor 1 antagonists” (Bioorg Med Chem Lett, 2006).
